Results from patent US20080200473A1, “Imidazo [1,2-a]Pyridine Compounds, Compositions, Uses and Methods Thereto” (Ferrer Internacional, S.A., priority 2004, published 2008).

Assays:
[1] = tested on: α1-GABAA receptor; test: Ligand-binding assay, competitive with radiolabeled flumazenil, cerebellum membranes; settings: Affinity for α1-GABAA receptor, rat cerebellum membranes, radiolabeled flumazenil 1 nM; for % Inhibition 10^−5M: 10^-5M test compound; for % Inhibition 10^−7M: 10^-7M test compound
Protocol: (§1) Ligand-binding assays. Determination of the affinity of test compounds for α1- and α2-GABAA receptor.
(§2) Male Sprague-Dawley rats weighing 200-250 g at the time of experiment were used. After decapitation of the animal, the cerebellum (tissue that mostly contains α1-GABAA receptor) and spinal cord (tissue that mostly contains α2-GABAA receptor) were removed. The membranes were prepared according to the method by J. Lameh et al. (Prog. Neuro-Psychopharmacol. Biol. Psychiatry, 24, 979-991, 2000) and H. Noguchi et al. (Eur. J. Pharm., 434, 21-28, 2002). Once the tissues weighed, they were suspended in 50 mM Tris.HCl (pH 7.4), 1:40 (w/v), or sucrose 0.32 M in the case of spinal cord, homogenized and then centrifuged at 20,000 g for 10 min at 7° C. twice. The resulting pellet was resuspended under the same conditions and centrifuged again. The pellet was finally resuspended on a minimum volume and kept at −80° C. overnight. On the next day, the process was repeated until the final pellet was resuspended at a ratio of 1:10 (w/v) in the case of cerebellum and at a ratio of 1:5 (w/v) in the case of spinal cord.
(§3) Affinity was determined by competitive tests using radiolabeled flumazenil as ligand. The tests were performed according to the methods described by S. Arbilla et al. (Eur. J. Pharmacol., 130, 257-263, 1986); and Y. Wu et al. (Eur. J. Pharmacol., 278, 125-132, 1995) using 96-well microtiter plates. The membranes containing the study receptors, flumazenil (radiolabeling at a final concentration of 1 nM) and ascending concentrations of test compounds (in a total volume of 230 μL in 50 mM [ph 7.4] Tris.HCl buffer) were incubated. Simultaneously, the membranes were only incubated with the radiolabeled flumazenil (total binding, 100%) and in the presence of an elevated concentration of unradiolabeled flumazenil (non-specific binding, % estimation of radiolabeled ligand). The reactions started on adding the radiolabeled ligand followed by incubation for 60 minutes at 4° C. At the end of the incubation period, 200 μL of reaction were transferred to a multiscreen plate (Millipore) and filtered using a vacuum manifold and then washed three times with cold test buffer. The multiscreen plates were equipped with a GF/B filter that retained the membranes containing the receptors and the radiolabeled ligand which has been bound to the receptors. After washing, the plates were left till dry. Once dried, scintillation liquid was added and left under stirring overnight. The next day the plates were counted using a Perkin-Elmer Microbeta scintillation counter.
(§4) For analysis of the results the percentage of specific binding for every concentration of test compound was calculated as follows:
(§5) % specific binding=(X−N/T−N)×100
(§6) where, X: amount of bound ligand for every concentration of compound. T: total binding, maximum amount bound to the radiolabeled ligand. N: non-specific binding, amount of radiolabeled ligand bound in a non-specific way irrespective of the receptor used.
(§7) Every concentrations of compound were tested in triplicate and their mean values were used to determine the experimental values of % specific binding versus the concentration of compound. Affinity data are expressed as % inhibition at 10^-5M and 10^-7M concentrations.

[2] = tested on: mice; test: In vivo predictive sedation-hypnosis test (inhibition of traveled distance); parameters: species or system mouse; settings: male CD1 mice; single equimolecular intraperitoneal doses; traveled distance over 30 min after dosing (first 5 min discarded) versus control
Protocol: In vivo determination of predictive sedative-hypnotic action.
The in vivo effects of these compounds were assessed by a predictive sedation-hypnosis test in mice (D. J. Sanger et al., Eur. J. Pharmacol., 313, 35-42, 1996; and G. Griebel et al., Psychopharmacology, 146, 205-213, 1999).
Groups of 5-8 male CD1 mice, weighing 22-26 g at the time of test, were used. The test compounds were administered in single equimolecular intraperitoneal doses, suspended in 0.25% agar with one drop of Tween in a volume of 10 mL/kg. Control animals received the vehicle alone. Using a Smart System (Panlab, S. L., Spain) the traveled distance in cm is recorded for each mouse at 5-min intervals during a period of 30 minutes after dosing. The inhibition percentage of traveled distance of treated animals versus control animals (the first 5 min were discarded) was calculated.

[3] = tested on: α2-GABAA receptor; test: Ligand-binding assay, competitive with radiolabeled flumazenil, spinal cord membranes; settings: Affinity for α2-GABAA receptor, rat spinal cord membranes, radiolabeled flumazenil 1 nM; for % Inhibition 10^−5M: 10^-5M test compound; for % Inhibition 10^−7M: 10^-7M test compound
Protocol: as §1, §2, §3, §4, §5, §6, §7

## Cc1ccc(-c2nc3ccc(C)cn3c2CN(C)C(=O)c2cccs2)cc1 [Example 29, Thiophene-2-carboxylic acid methyl-(6-methyl-2-p-tolyl-imidazo[1,2-a]pyridin-3-ylmethyl)-amide]
[1]
  % Inhibition 10^−5M: 99.7%
  % Inhibition 10^−7M: 84.9%
[2]
  % Inhibition Motor Activity: 93.98%
[3]
  % Inhibition 10^−5M: 90.2%
  % Inhibition 10^−7M: 25.0%

## Cc1ccc(-c2nc3ccc(C)cn3c2CNC(=O)c2ccncc2)cc1 [Example 7, N-(6-Methyl-2-p-tolyl-imidazo[1,2-a]pyridin-3-ylmethyl)-isonicotinamide]
[1]
  % Inhibition 10^−5M: 98.0%
  % Inhibition 10^−7M: 36.5%
[2]
  % Inhibition Motor Activity: 72.45%
[3]
  % Inhibition 10^−5M: 81.3%
  % Inhibition 10^−7M: 0.0%

## Cc1ccc(-c2nc3ccc(C)cn3c2CNC(=O)c2cccnc2)cc1 [Example 63, N-(6-Methyl-2-p-tolyl-imidazo[1,2-a]pyridin-3-ylmethyl)-nicotinamide]
[1]
  % Inhibition 10^−5M: 98.5%
  % Inhibition 10^−7M: 36.1%
[2]
  % Inhibition Motor Activity: 74.86%
[3]
  % Inhibition 10^−5M: 89.8%
  % Inhibition 10^−7M: 13.4%

## Cc1ccc(-c2nc3ccc(C)cn3c2CNC(=O)c2nccn2C)cc1 [Example 78, 1-Methyl-1H-imidazole-2-carboxylic acid (6-methyl-2-p-tolyl-imidazo[1,2-a]pyridin-3-ylmethyl)-amide]
[1]
  % Inhibition 10^−5M: 100.2%
  % Inhibition 10^−7M: 97.9%
[2]
  % Inhibition Motor Activity: 88.10%
[3]
  % Inhibition 10^−5M: 98.8%
  % Inhibition 10^−7M: 85.9%

## Cc1ccc(-c2nc3ccc(C)cn3c2CNC(=O)c2occc2C)cc1 [Example 15, 3-Methyl-furan-2-carboxylic acid (6-methyl-2-p-tolyl-imidazo[1,2-a]pyridin-3-ylmethyl)-amide]
[1]
  % Inhibition 10^−5M: 74.5%
  % Inhibition 10^−7M: 0.0%
[2]
  % Inhibition Motor Activity: 80.12%
[3]
  % Inhibition 10^−5M: 41.6%
  % Inhibition 10^−7M: 0.0%

## Cc1ccc(-c2nc3ccc(C)cn3c2CNC(=O)Cc2cccs2)cc1 [Example 71, N-(6-Methyl-2-p-tolyl-imidazo[1,2-a]pyridin-3-ylmethyl)-2-thiophen-2-yl-acetamide]
[1]
  % Inhibition 10^−5M: 96.4%
  % Inhibition 10^−7M: 21.9%
[2]
  % Inhibition Motor Activity: 94.08%
[3]
  % Inhibition 10^−5M: 67.8%
  % Inhibition 10^−7M: 7.2%

## Cc1ccc(-c2nc3ccc(C)cn3c2CN(C)C(=O)c2ccc([N+](=O)[O-])o2)cc1 [Example 32, 5-Nitro-furan-2-carboxylic acid methyl-(6-methyl-2-p-tolyl-imidazo[1,2-a]pyridin-3-ylmethyl)-amide]
[1]
  % Inhibition 10^−5M: 98.0%
  % Inhibition 10^−7M: 14.5%
[2]
  % Inhibition Motor Activity: 92.66%
[3]
  % Inhibition 10^−5M: 77.5%
  % Inhibition 10^−7M: 0.0%

## Cc1ccc(-c2nc3ccc(C)cn3c2CNC(=O)c2cc(C)on2)cc1 [Example 72, 5-Methyl-isoxazole-3-carboxylic acid (6-methyl-2-p-tolyl-imidazo[1,2-a]pyridin-3-ylmethyl)-amide]
[1]
  % Inhibition 10^−5M: 99.8%
  % Inhibition 10^−7M: 73.4%
[2]
  % Inhibition Motor Activity: 73.81%
[3]
  % Inhibition 10^−5M: 95%
  % Inhibition 10^−7M: 33.1%

## Cc1ccc(-c2nc3ccc(C)cn3c2CNC(=O)c2cnccn2)cc1 [Example 89, Pyrazine-2-carboxylic acid (6-methyl-2-p-tolyl-imidazo[1,2-a]pyridin-3-ylmethyl)-amide]
[1]
  % Inhibition 10^−5M: 100.3%
  % Inhibition 10^−7M: 88.2%
[2]
  % Inhibition Motor Activity: 74.65%
[3]
  % Inhibition 10^−5M: 98.2%
  % Inhibition 10^−7M: 54.5%

## COc1ccc(C(=O)NCc2c(-c3ccc(C)cc3)nc3ccc(C)cn23)cc1 [Example 11, 4-Methoxy-N-(6-methyl-2-p-tolyl-imidazo[1,2-a]pyridin-3-ylmethyl)-benzamide]
[1]
  % Inhibition 10^−5M: 70.7%
  % Inhibition 10^−7M: 29.0%
[2]
  % Inhibition Motor Activity: 55.43%
[3]
  % Inhibition 10^−5M: 6.5%
  % Inhibition 10^−7M: 0.0%

## Cc1ccc(-c2nc3ccc(C)cn3c2CN(C)C(=O)c2ccnc(Cl)c2)cc1 [Example 34, 2-Chloro-N-methyl-N-(6-methyl-2-p-tolyl-imidazo[1,2-a]pyridin-3-ylmethyl)-isonicotinamide]
[1]
  % Inhibition 10^−5M: 98.8%
  % Inhibition 10^−7M: 39.6%
[2]
  % Inhibition Motor Activity: 92.98%
[3]
  % Inhibition 10^−5M: 85.0%
  % Inhibition 10^−7M: 0.0%

## Cc1ccc(-c2nc3ccc(C)cn3c2CNC(=O)c2sccc2C)cc1 [Example 16, 3-Methyl-thiophene-2-carboxylic acid (6-methyl-2-p-tolyl-imidazo[1,2-a]pyridin-3-ylmethyl)-amide]
[1]
  % Inhibition 10^−5M: 95.4%
  % Inhibition 10^−7M: 2.2%
[2]
  % Inhibition Motor Activity: 82.38%
[3]
  % Inhibition 10^−5M: 52.9%
  % Inhibition 10^−7M: 0.0%

## Cc1ccc(-c2nc3ccc(C)cn3c2CNC(=O)c2ccnc(Cl)c2)cc1 [Example 17, 2-Chloro-N-(6-methyl-2-p-tolyl-imidazo[1,2-a]pyridin-3-ylmethyl)-isonicotinamide]
[1]
  % Inhibition 10^−5M: 94.5%
  % Inhibition 10^−7M: 0.0%
[2]
  % Inhibition Motor Activity: 54.40%
[3]
  % Inhibition 10^−5M: 24.4%
  % Inhibition 10^−7M: 0.0%

## Cc1ccc(-c2nc3ccc(C)cn3c2CN(C)C(=O)c2ccc(N(C)C)cc2)cc1 [Example 22, 4-Dimethylamino-N-methyl-N-(6-methyl-2-p-tolyl-imidazo[1,2-a]pyridin-3-ylmethyl)-benzamide]
[1]
  % Inhibition 10^−5M: 84.8%
  % Inhibition 10^−7M: 62.3%
[2]
  % Inhibition Motor Activity: 89.45%
[3]
  % Inhibition 10^−5M: 9.4%
  % Inhibition 10^−7M: 0.0%

## Cc1ccc(-c2nc3ccc(C)cn3c2CNC(=O)c2ccc(C)n2C)cc1 [Example 6, 1,5-Dimethyl-1H-pyrrole-2-carboxylic acid (6-methyl-2-p-tolyl-imidazo[1,2-a]pyridin-3-ylmethyl)-amide]
[1]
  % Inhibition 10^−5M: 96.1%
  % Inhibition 10^−7M: 22.5%
[2]
  % Inhibition Motor Activity: 78.09%
[3]
  % Inhibition 10^−5M: 64.4%
  % Inhibition 10^−7M: 0.0%

## Cc1ccc(-c2nc3ccc(C)cn3c2CNC(=O)c2c(C)noc2C)cc1 [Example 90, 3,5-Dimethyl-isoxazole-4-carboxylic acid (6-methyl-2-p-tolyl-imidazo[1,2-a]pyridin-3-ylmethyl)-amide]
[1]
  % Inhibition 10^−5M: 84.5%
  % Inhibition 10^−7M: 0.0%
[2]
  % Inhibition Motor Activity: 82.12%
[3]
  % Inhibition 10^−5M: 31.8%
  % Inhibition 10^−7M: 0.0%

## Cc1ccc(-c2nc3ccc(C)cn3c2CNC(=O)C2CC2)cc1 [Example 13, Cyclopropanecarboxylic acid (6-methyl-2-p-tolyl-imidazo[1,2-a]pyridin-3-ylmethyl)-amide]
[1]
  % Inhibition 10^−5M: 97.6%
  % Inhibition 10^−7M: 53.8%
[2]
  % Inhibition Motor Activity: 90.36%
[3]
  % Inhibition 10^−5M: 67.8%
  % Inhibition 10^−7M: 0.0%

## Cc1ccc(-c2nc3ccc(C)cn3c2CC(=O)N(C)C)cc1 [Zolpidem, reference compound]
[1]
  % Inhibition 10^−5M: 94.4%
  % Inhibition 10^−7M: 73.6%
[2]
  % Inhibition Motor Activity: 90.80%
[3]
  % Inhibition 10^−5M: 78.2%
  % Inhibition 10^−7M: 20.1%
